Literature values as cited in patent publication US8791078B2, “Cell protection in dialysis patients by administration of a creatine compound” (Crearene Ltd., priority 2009, dated 2014).

Tests used:
[1] = system: muscle cramps associated with haemodialysis; parameters: dose or concentration left out as unconfirmed; conditions: oral, before each dialysis session for 4 weeks
[2] = system: total plasma homocysteine; conditions: chronic haemodialysis patients, oral creatine (2 giday)
[3] = target: T1, creatine Transporter Protein (CrT) (Homo sapiens, UniProt P48029); conditions: CrT in the plasma membrane
T1 sequence (P48029 1-635): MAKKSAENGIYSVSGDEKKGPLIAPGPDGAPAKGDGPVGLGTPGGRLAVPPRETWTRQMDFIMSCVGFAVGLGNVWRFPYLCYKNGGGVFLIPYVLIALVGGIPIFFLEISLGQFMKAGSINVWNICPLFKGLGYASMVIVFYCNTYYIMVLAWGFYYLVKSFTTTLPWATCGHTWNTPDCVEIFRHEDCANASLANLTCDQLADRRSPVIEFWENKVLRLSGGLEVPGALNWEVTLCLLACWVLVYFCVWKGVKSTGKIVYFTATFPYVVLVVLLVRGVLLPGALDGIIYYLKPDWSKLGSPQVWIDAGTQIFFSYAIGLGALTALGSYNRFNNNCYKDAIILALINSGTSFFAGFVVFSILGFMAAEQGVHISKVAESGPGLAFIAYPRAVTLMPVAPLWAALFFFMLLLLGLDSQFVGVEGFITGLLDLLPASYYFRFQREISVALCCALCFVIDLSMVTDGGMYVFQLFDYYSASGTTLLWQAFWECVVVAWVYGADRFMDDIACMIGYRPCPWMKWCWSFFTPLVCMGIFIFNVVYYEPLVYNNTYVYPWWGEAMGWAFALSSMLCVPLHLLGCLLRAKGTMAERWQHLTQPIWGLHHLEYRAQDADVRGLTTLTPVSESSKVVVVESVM

[4] = system: serum levels of homocysteine; conditions: creatine supplementation

| Structure (SMILES) | effect on muscle cramps associated with haemodialysis [1] | effect on total plasma homocysteine [2] | Km [3] | effect on serum levels of homocysteine [4] |
| --- | --- | --- | --- | --- |
| CN(CC(=O)O)C(=N)N.O [creatine monohydrate] | alleviates muscle cramps associated with haemodialysis |  |  |  |
| CN(CC(=O)O)C(=N)N [creatine] |  | does not decrease total plasma homocysteine | 25 to 30 µM | reduce serum levels of homocysteine |
